Source: paper PMC9254122, “Structural control of self-assembled peptide nanostructures to develop peptide vesicles for photodynamic therapy of cancer” (Materials Today Bio, 2022)

Columns and labels:
SCC7 cells [1] = test: Photodynamic killing of cancer cells (PDT effect), MTT assay; type: cell-based; conditions: 24 h treatment, IR laser 671 nm at 1.59 J/cm^2, peptidesome fabricated in DW
Method: Having controlled the nano- and biostructural properties of the peptidesomes in terms of intracellular delivery efficiency and cytotoxicity, we then evaluated their tumoricidal photodynamic effects in tissue culture. Squamous cell carcinoma 7 (SCC7) cells were treated with free Pa or the peptidesome←Pa for 24 h, followed by infrared (IR) laser irradiation (671 nm) at 1.59 J/cm^2. Cytotoxicity as a measure of the photodynamic killing of cancer cells was determined using the MTT assay. […] To probe the reason behind this negative result, the amount of single oxygen (SO) generated was quantified after the incubation of both groups in cell culture medium (with serum). The amount of SO was far higher for free Pa than for peptidesome←Pa, which accounts for the results of the PDT assay (Fig. 4b). It has been shown that the aggregation of porphyrin derivatives reduced SO generation and negatively affected PDT efficacy. […] The aggregation would have been more severe in cell culture medium containing serum. Taken together, the nonspecific aggregation of the peptidesome←Pa is likely responsible for the reduced SO generation and the lack of PDT effect. The morphology of peptidesome before and after NIR irradiation was also monitored by AFM (Fig. S12). […]

[2] = Quantification of singlet oxygen with Singlet Oxygen Sensor Green (SOSG); conditions: RPMI 1640 medium with 10% foetal bovine serum, IR laser irradiation
Method: Fig. 4 Nonspecific aggregation of peptidesomes under physiological conditions. (a) PDT effect in SCC7 cells. (b) Quantification of singlet oxygen with Singlet Oxygen Sensor Green (SOSG). The samples were dissolved in RPMI 1640 medium containing 10% foetal bovine serum, and IR laser irradiation was performed for the indicated times. (c) AFM image of the peptidesome←Pa in RPMI 1640 medium (without the serum). R6:RGD2 = 1:9.

SCC7 cells [3] = test: In vitro cellular uptake, CLSM and flow cytometry; type: cell-based; conditions: 4 h treatment, flow cytometry of Pa fluorescence
Method: Cellular uptake of materials in SCC7 cells was analyzed based on the intrinsic fluorescence of Pa via CLSM (LSM700, Carl Zeiss, Germany) and flow cytometry (FACS Canto II, BD Biosciences, Bedford, MA, USA). SCC7 cells were seeded in 24-well plates at a density of 5 × 10^4 and incubated overnight. Then, 200 μL of the sample in an appropriate solution was added to 800 μL of complete medium for each well. The cells were treated with the samples for 4 h followed by the removal of the sample solution and the washing step. For cell imaging, nuclei were also stained with Hoechst 33,342.

SCC7 tumor-bearing mice = test: In vivo antitumor (photodynamic) efficacy; design: species or system mouse; conditions: end of therapy (14 days)
Method: The SCC7 tumor-bearing mouse models were prepared similarly to the in vivo imaging experiment, and each sample was prepared in the same way as in the in vivo IVIS imaging experiments. The samples were intravenously injected into the mice when the tumor volume reached approximately 50 mm^3. Three hours postinjection of the samples, NIR laser (671 nm) irradiation was administered to the tumor site with a power of 0.53 W/cm^2 for 15 min, and the same sample injection and NIR irradiation procedures were repeated at the next day. The tumor volume and body weight were recorded every two days. At the end of the therapy, major organs and tumors were dissected for histological analysis. They were fixed, sliced, stained with haematoxylin and eosin (H&E), and observed with a microscope (AxioImager A1, Zeiss, Germany).

[4] = stated without reference; cited from earlier work
Excerpt: As stated in Lipinski's rule of five, most small molecule drugs are lipophilic overall. Pheophorbide a (Pa), a small molecule drug used in this study, is also hydrophobic with a low water solubility of approximately 0.014 g/L. Pa is a porphyrin derivative of plant chlorophyll and has been used as a photosensitizer for photodynamic therapy (PDT). For noncovalent drug loading in R6 peptidesome, R6 and Pa were mixed in DW, and the solution was sonicated vigorously. After this drug loading process, the R6 peptidesomes underwent a morphological transformation into elongated supe ...

cells = test: Cytotoxicity of peptidesomes; type: cell-based; conditions: single-component peptidesomes (Fig. 3a)

For `C=Cc1c(C)c2cc3nc(c4c5[nH]c(cc6nc(cc1[nH]2)C(C)=C6CC)c(C)c5C(=O)[C@@H]4C(=O)OC)[C@@H](CCC(=O)O)[C@@H]3C` [Pa, Pheophorbide a], the “PDT effect (cytotoxicity, MTT)” value (SCC7 cells [1]) was “strong dose-dependent PDT effect”, the “amount of singlet oxygen (SO) generated, free Pa versus peptidesome←Pa” value [2] was “far higher” and the “cell internalization efficiency relative to peptidesome←Pa” value (SCC7 cells [3]) was 5 fold. The “excised tumor weight, times larger than peptidesome←Pa (G&G)-treated group” value (SCC7 tumor-bearing mice) was “approximately 3 times”, the “weight of the excised tumor” value (SCC7 tumor-bearing mice; n = 4) was 1222 mg and the water solubility [4] was “approximately 0.014 g/L”.
In the case of `CCCCCCCCCCCC(=O)N[C@H]1CCCCNC(=O)[C@H](Cc2c[nH]c3ccccc23)NC(=O)CCC(=O)NCCOCCOCCNC(=O)[C@H](CCCNC(=N)N)NC(=O)[C@H](CCCNC(=N)N)NC(=O)[C@H](CCCNC(=N)N)NC(=O)[C@H](CCCNC(=N)N)NC(=O)[C@H](CCCNC(=N)N)NC(=O)[C@H](CCCNC(=N)N)NC(=O)CCC(=O)NCCOCCOCCNC(=O)[C@H](Cc2c[nH]c3ccccc23)NC1=O` [R6], the Cytotoxicity of peptidesomes (cells) was “highly toxic”.
